This is an account of results in patent US20250263408A1 (Uniquest Pty Ltd, priority 2022, published 2025).

In test [1] the target is T1, Syk (Homo sapiens, UniProt P43405).
T1 construct: purchased Promega
The test can be described thus: Syk Biochemical Assay (ADP-Glo luminescence). To be noted: ATP 40 μM final, 60 minutes, read-out: SYK Biochem IC50. On the procedure:
Compounds were serially diluted in 100% DMSO, prior to an intermediate dilution in water. In a low volume white 384-well Proxiplate (Perkin Elmer), 1 μL of compound (0.4% final DMSO) was added to 3 μL of 10 ng/well Syk (Promega) and 0.2 mg/mL Poly-E4Y1 substrate (Promega) in assay buffer (final 40 mM Tris-HCl pH 7.4, 20 mM MgCl2, 0.1 mg/mL BSA) for 5 minutes. The reaction was initiated by addition of 1 μL of ATP (40 μM final) and allowed to proceed for 60 minutes at room temperature. The reaction was terminated by addition of 5 μL of ADP-Glo Reagent Mix (Promega) containing 1 mM MgCl2 for 45 minutes at room temperature. 10 μL of Kinase Detection Reagent (Promega) was added and incubated for 10 minutes at room temperature, before luminescence was measured using an Ensight Multimode Plate Reader (Perkin Elmer).
Background: In ADP-Glo the light output rises with the ADP produced.

In test [2] the target is T2, Ba/F3-Syk cells (Homo sapiens, UniProt P43405).
T2 construct: fused on or other part: Possible but unprinted fusion partner: TEL (ETV6), the usual partner for Ba/F3 lines transformed by Syk; Nothing on a partner is printed
The test can be described thus: Ba/F3 Proliferation Assay, Ba/F3-Syk cells (Resazurin). To be noted: 48-hour incubation. Type of test: cell-based. For orientation: Alamar Blue is a resazurin reagent that responds to reducing activity.

Test [3] deals with Ba/F3-WT (wild type) cells. The test can be described thus: Ba/F3 Proliferation Assay, Ba/F3-WT (wild type) cells with mIL-3 (Resazurin). Type of test: cell-based. To be noted: Mus musculus, BaF3, 48 h, Ba/F3-WT cells +mIL-3, 48-hour incubation.

In general, IC50 refers to the midpoint of a concentration-inhibition curve. One may read the EC50 as the concentration giving half of the maximal effect. High values mean a less potent agent, low ones a more potent agent. As to `c1cnc2cc(-c3cnn(C4CC4)c3)nc(OC[C@@H]3CNCCO3)c2c1` [Compound 2.21, 7-(1-cyclopropyl-1H-pyrazol-4-yl)-5-{[(2S)-morpholin-2-yl]methoxy}-1,6-naphthyridine], the IC50 in test [1] turned out to be 82.8 nM. Moreover, the figures for the EC50 in test [2] and in test [3] were 61 nM and 2700 nM, respectively.

On to `c1cnc2cc(-c3cnn(C4CCC4)c3)nc(OC[C@@H]3CNCCO3)c2c1` [Compound 2.22, 7-(1-cyclobutyl-1H-pyrazol-4-yl)-5-{[(2S)-morpholin-2-yl]methoxy}-1,6-naphthyridine], for which, in test [1], the IC50 was found to be 28.1 nM. In addition, the EC50 in test [2] came to 30.6 nM; in test [3], 694 nM.

As for `c1cnc2cc(-c3cn[nH]c3)nc(OC[C@@H]3CNCCO3)c2c1` [Compound 2.23, 5-{[(2S)-morpholin-2-yl]methoxy}-7-(1H-pyrazol-4-yl)-1,6-naphthyridine], in test [1], the IC50 worked out at 106 nM. The results for the EC50 in test [2] and in test [3] were 440 nM and 5800 nM, respectively.

With `Cn1cc(-c2cc3ncccc3c(OC[C@@H]3CNCC(C)(C)O3)n2)cn1` [Compound 2.32, 5-{[(2S)-6,6-dimethylmorpholin-2-yl]methoxy}-7-(1-methyl-1H-pyrazol-4-yl)-1,6-naphthyridine], the IC50 in test [1] came out at 23.5 nM. Further, the EC50 was 48.4 nM in test [2] and 4760 nM in test [3].

As for `Cn1cc(-c2cc3ncccc3c(OC[C@@H]3CNCC4(CC4)O3)n2)cn1` [Compound 2.43, 7-(1-methyl-1H-pyrazol-4-yl)-5-{[(5S)-4-oxa-7-azaspiro[2.5]octan-5-yl]methoxy}-1,6-naphthyridine], the IC50 in test [1] stood at 31.9 nM. Also, the EC50 in test [2] worked out at 79.9 nM; in test [3], 2520 nM.

For the compound `CC(C)n1cc(-c2cc3ncccc3c(OC[C@@H]3CNCC(C)(C)O3)n2)cn1` [Compound 2.45, 5-{[(2S)-6,6-dimethylmorpholin-2-yl]methoxy}-7-[1-(propan-2-yl)-1H-pyrazol-4-yl]-1,6-naphthyridine], in test [1], the IC50 stood at 9.2 nM. Besides, the EC50 in test [2] came out at 17.8 nM; in test [3], 1480 nM.

Take `CC1(C)CNC[C@@H](COc2nc(-c3cnn(C4CC4)c3)cc3ncccc23)O1` [Compound 2.46, 7-(1-cyclopropyl-1H-pyrazol-4-yl)-5-{[(2S)-6,6-dimethylmorpholin-2-yl]methoxy}-1,6-naphthyridine]: in test [1], the IC50 was found to be 19 nM. The EC50 in test [2] stood at 65 nM; in test [3], 3430 nM.

`CC(C)(C)n1cc(-c2cc3ncccc3c(OC[C@@H]3CNCCCO3)n2)cn1` [Compound 2.49, 7-(1-tert-butyl-1H-pyrazol-4-yl)-5-{[(2S)-1,4-oxazepan-2-yl]methoxy}-1,6-naphthyridine]: the IC50 in test [1] is 71 nM. Also, the EC50 in test [2] was determined as 47.1 nM; in test [3], 3050 nM.

`Cn1ccc(-c2cc3ncccc3c(OC[C@@H]3CNCCCO3)n2)c1` [Compound 2.52, 7-(1-methyl-1H-pyrrol-3-yl)-5-{[(2S)-1,4-oxazepan-2-yl]methoxy}-1,6-naphthyridine]: the IC50 in test [1] was 22.1 nM. Moreover, the EC50 amounted to 57.4 nM in test [2] and 9830 nM in test [3].

On to `CC1(C)CNC[C@@H](COc2nc(-c3ccn(C(C)(C)C)c3)cc3ncccc23)O1` [Compound 2.57, 7-(1-tert-butyl-1H-pyrrol-3-yl)-5-{[(2S)-6,6-dimethylmorpholin-2-yl]methoxy}-1,6-naphthyridine], for which the IC50 in test [1] was 10 nM. The EC50 in test [2] was 21.6 nM; in test [3], over 10000 nM.

Regarding `CC(C)(C)n1ccc(-c2cc3ncccc3c(OC[C@@H]3CNCCO3)n2)c1` [Compound 2.58, 7-(1-tert-butyl-1H-pyrrol-3-yl)-5-{[(2S)-morpholin-2-yl]methoxy}-1,6-naphthyridine], in test [1], the IC50 worked out at 9.6 nM. The EC50 is 25.4 nM in test [2] and 6710 nM in test [3].

As for `Cn1ccc(-c2cc3ncccc3c(OC[C@@H]3CNCC4(CC4)O3)n2)c1` [Compound 2.60, 7-(1-methyl-1H-pyrrol-3-yl)-5-{[(5S)-4-oxa-7-azaspiro[2.5]octan-5-yl]methoxy}-1,6-naphthyridine], the IC50 in test [1] came to 24.6 nM. Also, the EC50 in test [2] worked out at 26.6 nM; in test [3], 4070 nM.

Regarding `CC(C)(C)n1cc(-c2cc3ncccc3c(OC[C@@H]3CNCC4(CC4)O3)n2)cn1` [Compound 2.63, 7-(1-tert-butyl-1H-pyrazol-4-yl)-5-{[(5S)-4-oxa-7-azaspiro[2.5]octan-5-yl]methoxy}-1,6-naphthyridine], the IC50 in test [1] came out at 26.4 nM. The EC50 came to 20.6 nM in test [2] and 2870 nM in test [3].

Turning to `CC(C)(C)n1ccc(-c2cc3ncccc3c(OC[C@@H]3CNCCCO3)n2)c1` [Compound 2.69, 7-(1-tert-butyl-1H-pyrrol-3-yl)-5-{[(2S)-1,4-oxazepan-2-yl]methoxy}-1,6-naphthyridine], the IC50 in test [1] amounted to 30.1 nM. The EC50 was 13.5 nM in test [2] and over 10000 nM in test [3].

On to `C[C@@H]1CNC[C@@H](COc2nc(-c3cnn(C)c3)cc3ncccc23)O1` [Compound 2.76, 7-(1-methyl-1H-pyrazol-4-yl)-5-{[(2S,6R)-6-methylmorpholin-2-yl]methoxy}-1,6-naphthyridine], for which the IC50 in test [1] came out at 17.6 nM. The EC50 in test [2] was 44.8 nM; in test [3], 2760 nM.

Regarding `CC(C)[C@@H]1CNC[C@@H](COc2nc(-c3cnn(C(C)(C)C)c3)cc3ncccc23)O1` [Compound 2.98, 7-(1-tert-butyl-1H-pyrazol-4-yl)-5-{[(2S,6R)-6-(propan-2-yl)morpholin-2-yl]methoxy}-1,6-naphthyridine], the IC50 in test [1] was determined as 28.3 nM. Further, the figures for the EC50 in test [2] and in test [3] were 18.6 nM and 846 nM, respectively.

As for `CC(C)(C)n1cc(-c2cc3ncccc3c(OC[C@@H]3CNC[C@@H](C(F)F)O3)n2)cn1` [Compound 2.99, 7-(1-tert-butyl-1-pyrazol-4-yl)-5-{[(2S,6S)-6-(difluoromethyl)morpholin-2-yl]methoxy}-1,6-naphthyridine], the IC50 in test [1] stood at 21.4 nM. Besides, the EC50 worked out at 17.8 nM in test [2] and 1010 nM in test [3].

Take `CC(C)(C)[C@H]1CNC[C@@H](COc2nc(-c3cnn(C(C)(C)C)c3)cc3ncccc23)O1` [Compound 2.100, 7-(1-tert-butyl-1H-pyrazol-4-yl)-5-{[(2S,6S)-6-tert-butylmorpholin-2-yl]methoxy}-1,6-naphthyridine]: the IC50 in test [1] is 278 nM. The EC50 is 362 nM in test [2] and 3010 nM in test [3].

Consider `CC(C)(C)[C@@H]1CNC[C@@H](COc2nc(-c3cnn(C(C)(C)C)c3)cc3ncccc23)O1` [Compound 2.101, 7-(1-tert-butyl-1H-pyrazol-4-yl)-5-{[(2S,6R)-6-tert-butylmorpholin-2-yl]methoxy}-1,6-naphthyridine], for which, in test [1], the IC50 came out at 40 nM. Further, the EC50 was found to be 25.4 nM in test [2] and 628 nM in test [3].

As for `CC(C)(C)n1cc(-c2cc3ncccc3c(OC[C@@H]3CNC[C@H](C4CC4)O3)n2)cn1` [Compound 2.102, 7-(1-tert-butyl-1H-pyrazol-4-yl)-5-{[(2S,6S)-6-cyclopropylmorpholin-2-yl]methoxy}-1,6-naphthyridine], the IC50 in test [1] amounted to 12.9 nM. The EC50 in test [2] came to 11.7 nM; in test [3], 1070 nM.

With `CC(C)(C)n1cc(-c2cc3ncccc3c(OC[C@@H]3CNC[C@@H](C4CC4)O3)n2)cn1` [Compound 2.103, 7-(1-tert-butyl-1H-pyrazol-4-yl)-5-{[(2S,6R)-6-cyclopropylmorpholin-2-yl]methoxy}-1,6-naphthyridine], the IC50 in test [1] amounted to 30.5 nM. The EC50 came to 32.7 nM in test [2] and 985 nM in test [3].

On to `CC(C)[C@H]1CNC[C@@H](COc2nc(-c3cnn(C(C)(C)C)c3)cc3ncccc23)O1` [Compound 2.104, 7-(1-tert-butyl-1H-pyrazol-4-yl)-5-{[(2S,6S)-6-(propan-2-yl)morpholin-2-yl]methoxy}-1,6-naphthyridine], for which, in test [1], the IC50 was determined as 16.6 nM. The EC50 is 33.1 nM in test [2] and 1570 nM in test [3].

As to `CC(C)(C)n1cc(-c2cc3ncccc3c(OC[C@@H]3CNC[C@H](C(F)F)O3)n2)cn1` [Compound 2.105, 7-(1-tert-butyl-1H-pyrazol-4-yl)-5-{[(2S,6R)-6-(difluoromethyl)morpholin-2-yl]methoxy}-1,6-naphthyridine], in test [1], the IC50 worked out at 6.21 nM. In addition, the EC50 in test [2] is 31.1 nM; in test [3], 1550 nM.

On to `CC1(C)CNC[C@@H](COc2cc(-c3cnn(C(C)(C)C)c3)cc3ncccc23)O1` [Compound 3.2, 7-(1-tert-butyl-1H-pyrazol-4-yl)-5-{[(2S)-6,6-dimethylmorpholin-2-yl]methoxy} quinoline], for which the IC50 in test [1] came to 11.8 nM. Also, the values for the EC50 in test [2] and in test [3] were 23.5 nM and 2370 nM, respectively.

Consider `CC(C)n1cc(-c2cc(OC[C@@H]3CNCCO3)c3cccnc3c2)cn1` [Compound 3.4, 5-{[(2S)-morpholin-2-yl]methoxy}-7-[1-(propan-2-yl)-1H-pyrazol-4-yl]quinoline], for which the IC50 in test [1] is 29.3 nM. The EC50 in test [2] was 47.4 nM; in test [3] it was 926 nM.
